# Source: ChEMBL document CHEMBL2440076, “New triarylpyrazoles as broad-spectrum anticancer agents: design, synthesis, and biological evaluation” (Eur J Med Chem, 2013)
# Key:
# [1] = Growth inhibition of human HCC2998 cells assessed as cell growth at 10 uM after 48 hrs by sulforhodamine B assay; assay type: functional; settings: HCC 2998, 48 h, read-out: Activity
# K562 = test: Growth inhibition of human K562 cells after 48 hrs by sulforhodamine B assay; assay type: functional; settings: K562, 48 h
# U-251 = test: Growth inhibition of human U251 cells assessed as cell growth at 10 uM after 48 hrs by sulforhodamine B assay; assay type: functional; settings: U-251, 48 h, read-out: Activity
# PC-3 = test: Growth inhibition of human PC3 cells assessed as cell growth at 10 uM after 48 hrs by sulforhodamine B assay; assay type: functional; settings: PC-3, 48 h, read-out: Activity
# OVCAR-4 = test: Growth inhibition of human OVCAR4 cells assessed as cell growth at 10 uM after 48 hrs by sulforhodamine B assay; assay type: functional; settings: OVCAR-4, 48 h, read-out: Activity
# RXF 393 = test: Growth inhibition of human RXF393 cells after 48 hrs by sulforhodamine B assay; assay type: functional; settings: RXF 393, 48 h
# NCI-H522 = test: Growth inhibition of human NCI-H522 cells assessed as cell growth at 10 uM after 48 hrs by sulforhodamine B assay; assay type: functional; settings: NCI-H522, 48 h, read-out: Activity
# SK-MEL-28 = test: Growth inhibition of human SK-MEL-28 cells after 48 hrs by sulforhodamine B assay; assay type: functional; settings: SK-MEL-28, 48 h
# MDA-MB-468 = test: Growth inhibition of human MDA-MB-468 cells assessed as cell growth at 10 uM after 48 hrs by sulforhodamine B assay; assay type: functional; settings: MDA-MB-468, 48 h, read-out: Activity
# COLO 205 = test: Growth inhibition of human COLO205 cells after 48 hrs by sulforhodamine B assay; assay type: functional; settings: COLO 205, 48 h
# MDA-MB-435 = test: Growth inhibition of human MDA-MB-435 cells after 48 hrs by sulforhodamine B assay; assay type: functional, cell-based; settings: MDA-MB-435, 48 h
# SK-OV-3 = test: Growth inhibition of human SKOV3 cells assessed as cell growth at 10 uM after 48 hrs by sulforhodamine B assay; assay type: functional; settings: SK-OV-3, 48 h, read-out: Activity
# T47D [2] = test: Growth inhibition of human T47D cells assessed as cell growth at 10 uM after 48 hrs by sulforhodamine B assay; assay type: functional; settings: read-out: Activity
# RPMI-8226 = test: Growth inhibition of human RPMI8226 cells assessed as cell growth at 10 uM after 48 hrs by sulforhodamine B assay; assay type: functional; settings: RPMI-8226, 48 h, read-out: Activity
# A498 = test: Growth inhibition of human A498 cells assessed as cell growth at 10 uM after 48 hrs by sulforhodamine B assay; assay type: functional; settings: A498, 48 h, read-out: Activity
# BT-549 [3] = test: Growth inhibition of human BT549 cells assessed as cell growth at 10 uM after 48 hrs by sulforhodamine B assay; assay type: functional; settings: BT-549, 48 h, read-out: Activity
# HT-29 = test: Growth inhibition of human HT-29 cells after 48 hrs by sulforhodamine B assay; assay type: functional; settings: HT-29, 48 h
# T47D [4] = test: Growth inhibition of human T47D cells after 48 hrs by sulforhodamine B assay; assay type: functional
# MOLT-4 = test: Growth inhibition of human MOLT4 cells assessed as cell growth at 10 uM after 48 hrs by sulforhodamine B assay; assay type: functional; settings: MOLT-4, 48 h, read-out: Activity
# TK-10 = test: Growth inhibition of human TK10 cells assessed as cell growth at 10 uM after 48 hrs by sulforhodamine B assay; assay type: functional; settings: TK-10, 48 h, read-out: Activity
# KM12 = test: Growth inhibition of human KM12 cells assessed as cell growth at 10 uM after 48 hrs by sulforhodamine B assay; assay type: functional; settings: KM12, 48 h, read-out: Activity
# A549 = test: Growth inhibition of human A549/ATCC cells assessed as cell growth at 10 uM after 48 hrs by sulforhodamine B assay; assay type: functional; settings: A549, 48 h, read-out: Activity
# MDA-MB-231 = test: Growth inhibition of human MDA-MB-231 cells after 48 hrs by sulforhodamine B assay; assay type: functional; settings: MDA-MB-231, 48 h
# SNB-19 = test: Growth inhibition of human SNB19 cells after 48 hrs by sulforhodamine B assay; assay type: functional; settings: SNB-19, 48 h
# HCT-15 = test: Growth inhibition of human HCT15 cells assessed as cell growth at 10 uM after 48 hrs by sulforhodamine B assay; assay type: functional; settings: HCT-15, 48 h, read-out: Activity
# BT-549 [5] = test: Growth inhibition of human BT549 cells after 48 hrs by sulforhodamine B assay; assay type: functional; settings: BT-549, 48 h
# SN12C = test: Growth inhibition of human SN12C cells assessed as cell growth at 10 uM after 48 hrs by sulforhodamine B assay; assay type: functional; settings: read-out: Activity
# NCI-H460 = test: Growth inhibition of human NCI-H460 cells assessed as cell growth at 10 uM after 48 hrs by sulforhodamine B assay; assay type: functional; settings: NCI-H460, 48 h, read-out: Activity
# HOP-62 = test: Growth inhibition of human HOP62 cells assessed as cell growth at 10 uM after 48 hrs by sulforhodamine B assay; assay type: functional; settings: HOP-62, 48 h, read-out: Activity
# CAKI-1 = test: Growth inhibition of human CAKI-1 cells after 48 hrs by sulforhodamine B assay; assay type: functional; settings: CAKI-1, 48 h
# SK-MEL-2 = test: Growth inhibition of human SK-MEL-2 cells after 48 hrs by sulforhodamine B assay; assay type: functional; settings: SK-MEL-2, 48 h
# NCI-H23 = test: Growth inhibition of human NCI-H23 cells after 48 hrs by sulforhodamine B assay; assay type: functional; settings: NCI-H23, 48 h
# SK-MEL-5 = test: Growth inhibition of human SK-MEL-5 cells assessed as cell growth at 10 uM after 48 hrs by sulforhodamine B assay; assay type: functional; settings: SK-MEL-5, 48 h, read-out: Activity
# [6] = Growth inhibition of human Hs 578T cells assessed as cell growth at 10 uM after 48 hrs by sulforhodamine B assay; assay type: functional; settings: read-out: Activity
# [7] = read-out: LC50 (the source's name)
smiles,measurement,setting,value
O=C(Nc1cccc(-n2cc(-c3ccncc3)c(-c3ccc(Cl)c(O)c3)n2)c1)Nc1cccc(C(F)(F)F)c1,growth at 10 µM,[1],40.1%
same,GI50,K562,1.44 µM
same,TGI,K562,> 32.5 µM
same,CC50,K562; [7],> 32.5 µM
same,growth at 10 µM,U-251,15.8%
same,growth at 10 µM,PC-3,4.28%
same,growth at 10 µM,OVCAR-4,41.5%
same,GI50,RXF 393,3.02 µM
same,LC50 (concentration killing 50% of cells),RXF 393,> 32.5 µM
same,TGI,RXF 393,12 µM
same,growth at 10 µM,NCI-H522,-10.8%
same,GI50,SK-MEL-28,4.11 µM
same,LC50,SK-MEL-28,> 32.5 µM
same,TGI,SK-MEL-28,> 32.5 µM
same,growth at 10 µM,MDA-MB-468,10.5%
same,GI50,COLO 205,7.9 µM
same,LC50 (concentration killing 50% of cells),COLO 205,> 32.5 µM
same,TGI,COLO 205,23.8 µM
same,GI50,MDA-MB-435,1.49 µM
same,IC50,MDA-MB-435,1.49 µM
same,TGI,MDA-MB-435,12.6 µM
same,CC50,MDA-MB-435; [7],> 32.5 µM
same,growth at 10 µM,SK-OV-3,21.2%
same,growth at 10 µM,T47D [2],18.5%
same,growth at 10 µM,RPMI-8226,1.63%
same,growth at 10 µM,A498,17.7%
same,growth at 10 µM,BT-549 [3],36%
same,GI50,HT-29,9.82 µM
same,TGI,HT-29,> 32.5 µM
same,CC50,HT-29; [7],> 32.5 µM
same,GI50,T47D [4],2.47 µM
same,TGI,T47D [4],> 32.5 µM
same,CC50,T47D [4]; [7],> 32.5 µM
same,growth at 10 µM,MOLT-4,12.5%
same,growth at 10 µM,TK-10,21.9%
same,growth at 10 µM,KM12,2.46%
same,growth at 10 µM,A549,5.74%
same,GI50,MDA-MB-231,3.59 µM
same,LC50,MDA-MB-231,> 32.5 µM
same,TGI,MDA-MB-231,26.8 µM
same,GI50,SNB-19,1.91 µM
same,LC50 (concentration killing 50% of cells),SNB-19,> 32.5 µM
same,TGI,SNB-19,> 32.5 µM
same,growth at 10 µM,HCT-15,18.2%
same,GI50,BT-549 [5],6.51 µM
same,LC50 (50% lethal concentration),BT-549 [5],> 32.5 µM
same,TGI,BT-549 [5],21.4 µM
same,growth at 10 µM,SN12C,14.6%
same,growth at 10 µM,NCI-H460,7.29%
same,growth at 10 µM,HOP-62,38.1%
same,GI50,CAKI-1,1.75 µM
same,TGI,CAKI-1,> 32.5 µM
same,CC50,CAKI-1; [7],> 32.5 µM
same,GI50,SK-MEL-2,2.02 µM
same,LC50 (50% lethal concentration),SK-MEL-2,> 32.5 µM
same,TGI,SK-MEL-2,10.8 µM
same,GI50,NCI-H23,1.9 µM
same,LC50,NCI-H23,> 32.5 µM
same,TGI,NCI-H23,> 32.5 µM
same,growth at 10 µM,SK-MEL-5,-25.5%
same,growth at 10 µM,[6],29.4%
